Experimental data reported in patent US10952966B2, “Pharmaceutical composition comprising solid dispersion of BCS class II drugs with Gelucires” (GATTEFOSSE INDIA PVT. LTD., priority 2014, dated 2021).

Columns and labels:
[1] = Stress degradation of plain TEL drug, stability indicating HPLC method; assay type: physicochemical
[2] = n-octanol: buffer pH 7.4; cited from earlier work
[3] = pH 3 to 9; cited from earlier work

## CCCc1nc2c(C)cc(-c3nc4ccccc4n3C)cc2n1Cc1ccc(-c2ccccc2C(=O)O)cc1 [TEL, Telmisartan]
[1]; 1 N NaOH at 80° C. for 8 hours
  reduction in area (HPLC): 64.4%
[1]; pH modifiers employed in low concentration
  TEL degradation: no TEL degradation was observed
[2]
  partition coefficient, log P: 3.2
[3]
  solubility: poorly soluble
